According to US6355799B1, “Substituted benzene compounds, process for their preparation, and herbicidal and defoliant compositions containing them” (ISK Americas Incorporated, priority 1997, dated 2002):

What was measured:
Assay type in all cases: in vivo
[1] = system: redroot pigweed (Amaranthus retroflexus, AMARE); experiment: Pre-emerge test, greenhouse herbicide activity screening; settings: rating scale 0-100, 14 days after application
How it was run: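 Compounds in acetone were track-sprayed at 187 l/ha, 15–1000 g ai/ha, onto sandy loam pots. Pre-emerge seeds were sown one day before spraying, with surface watering afterwards. Post-emerge plants were at the 2–3 leaf stage and sprayed with 0.25% v/v non-ionic surfactant. Injury was rated 0–100 at 14 days.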

[2] = system: upland rice (Oryza sp., var. Tebonnet, RICE); experiment: Post-emerge test, crop safety; settings: rating scale 0-100 (0 no damage, 100 complete death), 14 days after application
How it was run: (§1)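 Rating: 0–100 visual injury, 14 DAA. Application: acetone, 187 l/ha, 15–1000 g ai/ha, flat-fan track sprayer with nozzle 40–45 cm above soil or canopy. Post-emerge runs used 0.25% v/v surfactant on 2–3 leaf plants.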

[3] = system: field corn (Zea mays L., var. Dekalb 535, CORN); experiment: Post-emerge test, crop safety; settings: rating scale 0-100 (0 no damage, 100 complete death), 14 days after application
How it was run: as §1

[4] = system: lambsquarters (Chenopodium album, CHEAL); experiment: Pre-emerge test, greenhouse herbicide activity screening; settings: rating scale 0-100, 14 days after application
How it was run: (§2)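 Compounds in acetone were track-sprayed at 15–1000 g ai/ha: pre-emergence onto soil sown the previous day, then top-watered to incorporate and later bottom-watered; post-emergence onto 2–3 leaf plants with 0.25% v/v surfactant, bottom-watered only. Ratings on a 0–100 phytotoxicity scale were taken at day 14.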

[5] = system: large crabgrass (Digitaria sanguinalis, DIGSA); experiment: as above; settings: rating scale 0-100, 14 days after application
How it was run: as §2

[6] = system: johnsongrass (Sorghum halepense, SORHA); experiment: as above; settings: rating scale 0-100, 14 days after application
How it was run: as §2

[7] = system: sicklepod (Cassia obtusifolia, CASOB); experiment: as above; settings: rating scale 0-100, 14 days after application
How it was run: as §2

[8] = system: ivyleaf morningglory (Ipomoea hederacea, IPOHE); experiment: as above; settings: rating scale 0-100, 14 days after application
How it was run: as §2

[9] = system: velvetleaf (Abutilon theophrasti, ABUTH); experiment: as above; settings: rating scale 0-100, 14 days after application
How it was run: as §2

[10] = system: common ragweed (Ambrosia artemisizfolia L., AMBEL); experiment: as above; settings: rating scale 0-100, 14 days after application
How it was run: as §2

[11] = system: green foxtail (Setaria viridis, SETVI); experiment: as above; settings: rating scale 0-100, 14 days after application
How it was run: as §2

[12] = system: barnyardgrass (Echinochloa crus-galli, ECHCG); experiment: as above; settings: rating scale 0-100, 14 days after application
How it was run: as §2

[13] = system: lambsquarters (Chenopodium album, CHEAL); experiment: Post-emerge test, greenhouse herbicide activity screening; settings: rating scale 0-100 (0 no damage, 100 complete death), 14 days after application
How it was run: (§3)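 Fourteen days after spraying, crop and weed injury was graded visually from 0, no effect, to 100, every plant dead. Test substances were dissolved in acetone and applied at 15–1000 g ai/ha with a flat-fan nozzle. Application was either pre-emergence, one day after sowing, or post-emergence at the 2–3 leaf stage.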

[14] = system: large crabgrass (Digitaria sanguinalis, DIGSA); experiment: as above; settings: rating scale 0-100 (0 no damage, 100 complete death), 14 days after application
How it was run: as §3

[15] = system: johnsongrass (Sorghum halepense, SORHA); experiment: as above; settings: rating scale 0-100 (0 no damage, 100 complete death), 14 days after application
How it was run: as §3

[16] = system: sicklepod (Cassia obtusifolia, CASOB); experiment: as above; settings: rating scale 0-100 (0 no damage, 100 complete death), 14 days after application
How it was run: as §3

[17] = system: ivyleaf morningglory (Ipomoea hederacea, IPOHE); experiment: as above; settings: rating scale 0-100 (0 no damage, 100 complete death), 14 days after application
How it was run: as §3

[18] = system: velvetleaf (Abutilon theophrasti, ABUTH); experiment: as above; settings: rating scale 0-100 (0 no damage, 100 complete death), 14 days after application
How it was run: as §3

[19] = system: green foxtail (Setaria viridis, SETVI); experiment: as above; settings: rating scale 0-100 (0 no damage, 100 complete death), 14 days after application
How it was run: as §3

[20] = system: barnyardgrass (Echinochloa crus-galli, ECHCG); experiment: as above; settings: rating scale 0-100 (0 no damage, 100 complete death), 14 days after application
How it was run: as §3

[21] = system: redroot pigweed (Amaranthus retroflexus, AMARE); experiment: as above; settings: rating scale 0-100 (0 no damage, 100 complete death), 14 days after application
How it was run: as §3

[22] = system: upland rice (Oryza sp., var. Tebonnet, RICE); experiment: Pre-emerge test, crop safety; settings: rating scale 0-100, 14 days after application
How it was run: as §3

[23] = system: field corn (Zea mays L., var. Dekalb 535, CORN); experiment: Pre-emerge test, crop safety; settings: rating scale 0-100, 14 days after application
How it was run: as §3

CCOC(=O)CCc1c(OC)c(Cl)cc(F)c1-n1c(=O)cc(C(F)(F)F)n(C)c1=O [14-1]
Pre-emerge herbicidal activity, phytotoxicity rating AMARE ([1]; 63 g ai/ha): 100
Pre-emerge herbicidal activity, phytotoxicity rating AMARE ([1]; 250 g ai/ha): 100
Post-emerge phytotoxicity rating RICE (crop damage) ([2]; Rate 63 g ai/ha): 40
Post-emerge phytotoxicity rating RICE (crop damage) ([2]; Rate 250 g ai/ha): 80
Post-emerge phytotoxicity rating CORN (crop damage) ([3]; Rate 63 g ai/ha): 85
Post-emerge phytotoxicity rating CORN (crop damage) ([3]; Rate 250 g ai/ha): 100
Pre-emerge herbicidal activity, phytotoxicity rating CHEAL ([4]; 63 g ai/ha): 98
Pre-emerge herbicidal activity, phytotoxicity rating CHEAL ([4]; 250 g ai/ha): 100
Pre-emerge herbicidal activity, phytotoxicity rating DIGSA ([5]; 63 g ai/ha): 40
Pre-emerge herbicidal activity, phytotoxicity rating DIGSA ([5]; 250 g ai/ha): 85
Pre-emerge herbicidal activity, phytotoxicity rating SORHA ([6]; 63 g ai/ha): 0
Pre-emerge herbicidal activity, phytotoxicity rating SORHA ([6]; 250 g ai/ha): 90
Pre-emerge herbicidal activity, phytotoxicity rating CASOB ([7]; 63 g ai/ha): 0
Pre-emerge herbicidal activity, phytotoxicity rating CASOB ([7]; 250 g ai/ha): 0
Pre-emerge herbicidal activity, phytotoxicity rating IPOHE ([8]; 63 g ai/ha): 30
Pre-emerge herbicidal activity, phytotoxicity rating IPOHE ([8]; 250 g ai/ha): 75
Pre-emerge herbicidal activity, phytotoxicity rating ABUTH ([9]; 63 g ai/ha): 75
Pre-emerge herbicidal activity, phytotoxicity rating ABUTH ([9]; 250 g ai/ha): 100
Pre-emerge herbicidal activity, phytotoxicity rating AMBEL ([10]; 63 g ai/ha): 0
Pre-emerge herbicidal activity, phytotoxicity rating AMBEL ([10]; 250 g ai/ha): 0
Pre-emerge herbicidal activity, phytotoxicity rating SETVI ([11]; 63 g ai/ha): 15
Pre-emerge herbicidal activity, phytotoxicity rating SETVI ([11]; 250 g ai/ha): 55
Pre-emerge herbicidal activity, phytotoxicity rating ECHCG ([12]; 63 g ai/ha): 15
Pre-emerge herbicidal activity, phytotoxicity rating ECHCG ([12]; 250 g ai/ha): 30
Post-emerge Herbicidal Activity, phytotoxicity rating CHEAL ([13]; Rate 63 g ai/ha): 80
Post-emerge Herbicidal Activity, phytotoxicity rating CHEAL ([13]; Rate 250 g ai/ha): 98
Post-emerge Herbicidal Activity, phytotoxicity rating DIGSA ([14]; Rate 63 g ai/ha): 80
Post-emerge Herbicidal Activity, phytotoxicity rating DIGSA ([14]; Rate 250 g ai/ha): 95
Post-emerge Herbicidal Activity, phytotoxicity rating SORHA ([15]; Rate 63 g ai/ha): 25
Post-emerge Herbicidal Activity, phytotoxicity rating SORHA ([15]; Rate 250 g ai/ha): 75
Post-emerge Herbicidal Activity, phytotoxicity rating CASOB ([16]; Rate 63 g ai/ha): 55
Post-emerge Herbicidal Activity, phytotoxicity rating CASOB ([16]; Rate 250 g ai/ha): 70
Post-emerge Herbicidal Activity, phytotoxicity rating IPOHE ([17]; Rate 63 g ai/ha): 85
Post-emerge Herbicidal Activity, phytotoxicity rating IPOHE ([17]; Rate 250 g ai/ha): 100
Post-emerge Herbicidal Activity, phytotoxicity rating ABUTH ([18]; Rate 63 g ai/ha): 85
Post-emerge Herbicidal Activity, phytotoxicity rating ABUTH ([18]; Rate 250 g ai/ha): 98
Post-emerge Herbicidal Activity, phytotoxicity rating SETVI ([19]; Rate 63 g ai/ha): 40
Post-emerge Herbicidal Activity, phytotoxicity rating SETVI ([19]; Rate 250 g ai/ha): 70
Post-emerge Herbicidal Activity, phytotoxicity rating ECHCG ([20]; Rate 63 g ai/ha): 85
Post-emerge Herbicidal Activity, phytotoxicity rating ECHCG ([20]; Rate 250 g ai/ha): 95
Post-emerge Herbicidal Activity, phytotoxicity rating AMARE ([21]; Rate 63 g ai/ha): 100
Post-emerge Herbicidal Activity, phytotoxicity rating AMARE ([21]; Rate 250 g ai/ha): 100
Pre-emerge phytotoxicity rating, crop damage RICE ([22]; 63 g ai/ha): 15
Pre-emerge phytotoxicity rating, crop damage RICE ([22]; 250 g ai/ha): 45
Pre-emerge phytotoxicity rating, crop damage CORN ([23]; 63 g ai/ha): 0
Pre-emerge phytotoxicity rating, crop damage CORN ([23]; 250 g ai/ha): 10
